For 46 molecules, Kd, inhibition and Papp results are on record in ChEMBL document CHEMBL3421550, “Diphenylpyrazoles as replication protein a inhibitors” (ACS Med Chem Lett, 2015).

Some results are limits rather than exact numbers.

The target in series [1] is T1, Replication protein A 70 kDa DNA-binding subunit (Homo sapiens, UniProt P27694).
Description: Binding affinity to RPA70N protein (unknown origin) incubated for 1 hr using FITC-ATRIP/FITC-ATRIP2 peptide probe by fluorescence polarization anisotropy assay
Series [2] has as its target T1, Replication protein A 70 kDa DNA-binding subunit. The note with it: at 500 µM.
Description: Displacement of FITC-ATRIP/FITC-ATRIP2 peptide probe from RPA70N protein (unknown origin) at 500 uM incubated for 1 hr by fluorescence polarization anisotropy assay
For series [3] the target is unchanged. As to the kind of experiment: Binding affinity to RPA70N protein (unknown origin) by HSQC NMR-based titration method.
The nature of series [4]: Intrinsic permeability in human Caco2 cells. The class given is ADME, cell-based. The note with it: Caco-2, read-out: permeability. (Passage across Caco-2 layers is used to estimate intestinal permeability.)

T1 sequence (P27694 whole entry): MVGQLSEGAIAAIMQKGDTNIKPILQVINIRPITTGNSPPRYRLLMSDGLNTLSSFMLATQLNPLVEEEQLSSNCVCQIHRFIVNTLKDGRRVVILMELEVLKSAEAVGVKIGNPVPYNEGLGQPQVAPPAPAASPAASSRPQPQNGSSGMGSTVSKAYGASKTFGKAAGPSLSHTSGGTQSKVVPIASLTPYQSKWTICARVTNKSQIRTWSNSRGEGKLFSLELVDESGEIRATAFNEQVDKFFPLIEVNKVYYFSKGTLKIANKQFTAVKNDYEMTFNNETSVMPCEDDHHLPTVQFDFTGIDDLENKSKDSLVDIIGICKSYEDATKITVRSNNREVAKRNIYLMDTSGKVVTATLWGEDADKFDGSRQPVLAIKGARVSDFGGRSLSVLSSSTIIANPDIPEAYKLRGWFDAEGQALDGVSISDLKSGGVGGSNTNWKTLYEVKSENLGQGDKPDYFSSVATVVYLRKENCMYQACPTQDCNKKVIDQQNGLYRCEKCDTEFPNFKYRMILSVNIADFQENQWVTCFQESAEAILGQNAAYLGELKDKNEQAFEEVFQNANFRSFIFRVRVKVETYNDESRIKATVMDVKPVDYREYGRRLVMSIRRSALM

Usually Kd stands for the constant that tells how readily two partners part at equilibrium. A low value points to higher affinity. A word on the inhibition: it is the share of the control response that was lost under treatment. High values mean strong suppression, low ones little suppression. For `COc1ccc(-c2cc(C(=O)O)nn2-c2ccc(Br)cc2)cc1`, the Kd in series [1] is over 500 µM. In series [2], this molecule showed an inhibition of 24%. `O=C(NCc1ccc(-c2cc(C(=O)O)nn2-c2ccc(Cl)c(Cl)c2)cc1)c1ccccc1` registered a Kd in series [1] of 90 µM. In the case of `COc1ccc(-c2cc(C(=O)O)nn2-c2cccc(Cl)c2)cc1`, the Kd in series [1] is over 500 µM. In addition, the inhibition in series [2] was determined as 35%. Regarding `O=C(O)c1cc(-c2ccc(CNC(=S)c3ccc(-c4nc(=O)o[nH]4)cc3)cc2)n(-c2ccc(Cl)c(Cl)c2)n1`, in series [1], the affinity, expressed as Kd, was 9.3 µM.

Regarding `Cc1cccc(-c2cc(C(=O)O)nn2-c2ccc(Cl)c(Cl)c2)c1`, in series [1], the affinity, expressed as Kd, was 90 µM. This Kd lies about 9.7-fold higher than the previous one.

In turn, `O=C(O)c1cc(-c2ccc(C(=S)NCc3ccc(-c4ccc(C(=O)O)o4)cc3)cc2)n(-c2ccc(Cl)c(Cl)c2)n1` had a Kd in series [1] of 1.5 µM. As for `COc1ccc(-n2nc(C(=O)O)cc2-c2ccccc2)cc1`, the dissociation constant Kd in series [1] was over 500 µM; in series [3], 895 µM. Moreover, the inhibition in series [2] is 18%. As for `Nc1ccc(-c2cc(C(=O)O)nn2-c2ccc(Cl)c(Cl)c2)cc1`, in series [1], binding was characterised by a dissociation constant (Kd) of 227 µM.

In series [1], `NCc1ccc(-c2cc(C(=O)O)nn2-c2ccc(Cl)c(Cl)c2)cc1` came in with a dissociation constant (Kd) of over 500 µM. In series [1], `COc1ccc(-c2cc(C(=O)O)nn2-c2ccc(C)cc2)cc1` gave a Kd of over 500 µM. In series [2], this molecule displayed an inhibition of 15%. `O=C(O)c1cc(-c2ccc(O)cc2)n(-c2ccc(Cl)c(Cl)c2)n1`: the affinity in series [1], expressed as Kd, was 104 µM. With `O=C(O)c1cc(-c2ccccc2)n(-c2ccc(Cl)c(Cl)c2)n1`, in series [1], the Kd was 123 µM. Take `COc1ccc(CNC(=O)c2ccc(-c3cc(C(=O)O)nn3-c3ccc(Cl)c(Cl)c3)cc2)cc1`: the Kd in series [1] was determined as 45 µM. Compared with the last molecule, the Kd is about 2.7-fold lower.

The molecule `O=C(NCc1ccc(-c2cc(C(=O)O)nn2-c2ccc(Cl)c(Cl)c2)cc1)c1ccc(Br)cc1` displayed a Kd in series [1] of 35 µM.

Consider `COc1ccc(CNC(=S)c2ccc(-c3cc(C(=O)O)nn3-c3ccc(Cl)c(Cl)c3)cc2)cc1`, for which the Kd in series [1] is 23 µM. In series [1], `O=C(O)c1ccc(-c2cc(C(=O)O)nn2-c2ccc(Cl)c(Cl)c2)cc1` displayed a Kd of 59 µM. As for `Cc1cccc(-n2nc(C(=O)O)cc2-c2ccccc2)c1`, the Kd in series [1] was over 500 µM; in series [3] it was 580 µM. In series [1], `O=C(O)c1cc(-c2ccc(CNC(=S)c3ccc(Br)cc3)cc2)n(-c2ccc(Cl)c(Cl)c2)n1` came in with a Kd of 15 µM.

Regarding `O=C(O)c1cc(Cc2ccc(O)cc2)n(-c2ccc(Cl)c(Cl)c2)n1`, the equilibrium dissociation constant (Kd) in series [1] is over 500 µM. Consider `NS(=O)(=O)c1ccc(C(=S)NCc2ccc(-c3cc(C(=O)O)nn3-c3ccc(Cl)c(Cl)c3)cc2)cc1`, for which the affinity in series [1], expressed as Kd, was 34 µM.

`COc1ccc(-c2cc(C(=O)O)nn2-c2cccc(C)c2)cc1` returned a Kd in series [1] of over 500 µM. Further, the inhibition in series [2] turned out to be 20%. `O=C(O)c1cc(-c2ccc(CNS(=O)(=O)c3ccccc3)cc2)n(-c2ccc(Cl)c(Cl)c2)n1`: binding in series [1] was put at a Kd of 70 µM.

Molecule `O=C(O)c1cc(-c2cccc(CNCc3ccc(-c4ccc(C(=O)O)o4)cc3)c2)n(-c2ccc(Cl)c(Cl)c2)n1` gave a Kd in series [1] of 57 µM. This Kd and that of the molecule before are within 1.5-fold of each other. For the molecule `O=C(O)c1cc(-c2ccccc2)n(-c2ccccc2)n1`, the affinity in series [3], expressed as Kd, was 1150 µM.

In series [1], `COc1ccc(-c2cc(C(=O)O)nn2-c2ccc(Cl)c(Cl)c2)cc1` gave a Kd of 79 µM.

`O=C(O)c1cc(-c2ccc(CNC(=S)c3ccc(-c4ccc(C(=O)O)o4)cc3)cc2)n(-c2ccc(Cl)c(Cl)c2)n1` registered a Kd in series [1] of 0.55 µM. Against the preceding molecule, the Kd is about 140-fold lower. Same read-out and setting: the result for `COc1ccc(C(=O)NCc2ccc(-c3cc(C(=O)O)nn3-c3ccc(Cl)c(Cl)c3)cc2)cc1` reads 72 µM. As for `O=C(NCc1ccc(-c2ccc(C(=O)O)o2)cc1)c1cccc(-c2cc(C(=O)O)nn2-c2ccc(Cl)c(Cl)c2)c1`, the equilibrium dissociation constant (Kd) in series [1] was 22 µM. On the same count and under the same terms, the result for `O=C(O)c1cc(-c2ccc(CN3CCc4cc(-c5ccc(C(=O)O)o5)ccc4C3=S)cc2)n(-c2ccc(Cl)c(Cl)c2)n1` reads 0.54 µM; that for `O=C(NCc1ccccc1)c1ccc(-c2cc(C(=O)O)nn2-c2ccc(Cl)c(Cl)c2)cc1`, 83 µM.

`COc1ccc(-c2cc(C(=O)O)nn2-c2ccc(Cl)cc2)cc1`: the Kd in series [1] was over 500 µM. Further, the inhibition in series [2] is 19%. With `O=C(O)c1cc(-c2ccc(CNS(=O)(=O)c3ccc(OC(F)(F)F)cc3)cc2)n(-c2ccc(Cl)c(Cl)c2)n1`, in series [1], binding was characterised by a dissociation constant (Kd) of 56 µM. As to `O=C(O)c1cc(-c2ccc(Cl)cc2)n(-c2ccc(Cl)c(Cl)c2)n1`, the Kd in series [1] was 67 µM; in series [3], 54 µM. Regarding `O=C(O)c1cc(-c2ccc(C(=S)NCc3cccc(-c4ccc(C(=O)O)o4)c3)cc2)n(-c2ccc(Cl)c(Cl)c2)n1`, binding in series [1] was characterised by a dissociation constant (Kd) of 2.5 µM.

In series [1], `O=C(O)c1ccc(-c2ccc(C(=S)NCc3ccc(-c4ccnn4-c4ccc(Cl)c(Cl)c4)cc3)c(Cl)c2)o1` returned a Kd of 1.7 µM. Moreover, the Papp in series [4] turned out to be 14.5 ×10⁻⁶ cm/s.

Molecule `O=C(O)c1cc(-c2ccco2)n(-c2ccc(Cl)c(Cl)c2)n1` returned a Kd in series [1] of over 500 µM. In series [1], `COc1ccc(-c2cc(C(=O)O)nn2C2CCCCC2)cc1` showed a Kd of over 500 µM. In series [2], this molecule gave an inhibition of 9%.

In the case of `O=C(O)c1cccc(-c2cc(C(=O)O)nn2-c2ccc(Cl)c(Cl)c2)c1`, in series [1], the Kd is 129 µM. `O=C(O)c1cc(-c2ccc(C(=S)NCc3ccc(-c4ccc(C(=O)O)o4)cc3Cl)cc2)n(-c2ccc(Cl)c(Cl)c2)n1`: the Kd in series [1] is 0.48 µM. `N#Cc1ccc(-c2cc(C(=O)O)nn2-c2ccc(Cl)c(Cl)c2)cc1` had a Kd in series [1] of 310 µM. Regarding `O=C(O)c1cc(-c2ccc(C(=S)NCc3ccccc3)cc2)n(-c2ccc(Cl)c(Cl)c2)n1`, in series [1], the dissociation constant Kd was found to be 18 µM. On to `Cc1ccc(-c2cc(C(=O)O)nn2-c2ccc(Cl)c(Cl)c2)cc1`, for which the Kd in series [1] came to 72 µM. This Kd is about 4-fold higher than that of the molecule before. In the case of `O=C(O)c1cc(-c2ccc(CNC(=S)c3ccc(-c4nnn[nH]4)cc3)cc2)n(-c2ccc(Cl)c(Cl)c2)n1`, in series [1], binding was put at a Kd of 2.2 µM.

Consider `CC(=O)N(Cc1ccc(-c2ccc(C(=O)O)o2)cc1)Cc1cccc(-c2cc(C(=O)O)nn2-c2ccc(Cl)c(Cl)c2)c1`, for which the affinity in series [1], expressed as Kd, was 8.2 µM. Against the preceding molecule, the Kd is about 3.7-fold higher.

`O=C(NCc1ccc(-c2ccc(C(=O)O)o2)cc1Cl)c1ccc(-c2cc(C(=O)O)nn2-c2ccc(Cl)c(Cl)c2)cc1`: in series [1], the Kd is 9.4 µM. As to `COc1ccc(-c2cc(C(=O)O)nn2-c2cccc(Br)c2)cc1`, binding in series [1] was characterised by a dissociation constant (Kd) of 140 µM.
